Experimental data taken from patent US6015805A, “17β-nitro-11β-arylisteroids and their derivatives having agonist or antagonist hormonal properties” (Research Triangle Research North Carolina, priority 1999, dated 2000).

What was measured:
rabbits [1] = test: McGinty assay (progestational activity, test compound alone); assay type: in vivo, rabbit; parameters: key: McPhail scoring scale for progestational endometrial response
Protocol: (§1) Progestational activity and antiprogestational activity were determined in rabbits by means of the McGinty test (test compound alone, procedure of McGinty et al., Endocrinology, 24: 829-832 (1939)) or anti-McGinty test (test compound plus progesterone, procedure of Tamara et al., Jpn. J. Fertil Steril 24: 48-81 (1979)). Results were scored according to McPhail (McPhail, J Physiol., 83: 146 (1934)). These are standard procedures known to those skilled in the art. The results of these assays are shown in Tables 4 (agonist activity) and 5 (antagonist activity). […] Physiol, 83: 146 (1934)).

[2] = biological target: T1, glucocorticoid receptor (rGR) (Oryctolagus cuniculus, UniProt P59667); test: Receptor binding (rabbit), glucocorticoid receptor; conditions: relative to dexamethasone = 100
T1 construct: the source of the glucocorticoid receptor was the thymus of the estrogen-primed immature female rabbit; from tissue; host or cells: thymus of the estrogen-primed immature female rabbit
T1 sequence (P59667 1-772): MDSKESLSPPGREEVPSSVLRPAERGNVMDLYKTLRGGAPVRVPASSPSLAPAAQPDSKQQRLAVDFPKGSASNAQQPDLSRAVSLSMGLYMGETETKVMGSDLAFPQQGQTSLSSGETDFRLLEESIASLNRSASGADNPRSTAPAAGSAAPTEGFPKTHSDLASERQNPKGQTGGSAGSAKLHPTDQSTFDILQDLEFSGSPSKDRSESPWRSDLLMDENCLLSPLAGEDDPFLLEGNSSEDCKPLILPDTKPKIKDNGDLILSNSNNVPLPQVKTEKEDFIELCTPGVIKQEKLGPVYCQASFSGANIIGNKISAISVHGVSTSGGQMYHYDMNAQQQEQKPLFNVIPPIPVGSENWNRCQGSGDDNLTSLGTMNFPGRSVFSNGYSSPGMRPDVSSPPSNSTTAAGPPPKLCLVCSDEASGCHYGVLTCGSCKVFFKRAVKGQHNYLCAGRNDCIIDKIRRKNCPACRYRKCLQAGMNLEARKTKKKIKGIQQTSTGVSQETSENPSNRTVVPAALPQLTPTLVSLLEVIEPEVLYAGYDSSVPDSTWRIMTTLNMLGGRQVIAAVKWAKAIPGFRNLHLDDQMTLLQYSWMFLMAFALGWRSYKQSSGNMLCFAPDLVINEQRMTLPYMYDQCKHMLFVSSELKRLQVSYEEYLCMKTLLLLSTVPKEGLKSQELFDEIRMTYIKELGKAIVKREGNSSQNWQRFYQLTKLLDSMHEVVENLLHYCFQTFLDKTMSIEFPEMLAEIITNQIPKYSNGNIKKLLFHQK
Protocol: The affinity of the compounds for hormone receptors for progestins and glucocorticoids from rabbits was determined by standard procedures similar to those that have been described in C. E. Cook, et al., Human Reproduction, Volume 9, supplement 1, pp. 32-39 (1994). However, the source of the glucocorticoid receptor was the thymus of the estrogen-primed immature female rabbit. The affinity of the compounds for the human progesterone hormone receptor was determined by standard procedures similar to those that have been described in Horwitz, et al., Cell, 28: 633-42 (1982) and Mockus, et al., Endocrinology, 110: 1564-71 (1982). The receptor was obtained in cytosol from human T-47D breast cells and [^3 H]-R5020 was used as the radioligand. T47D cells (1 billion/mL) were homogenized in TEDG buffer (10 mM Tris, 1.5 mM EDTA, 1 mM dithiothreitol, 1 mM sodium molybdate, and 10% glycerol) using a Dounce pestle A, and the homogenate was centrifuged at 34,000×g for 1 hour. The supernatant was stored at -80° C. An aliquot of receptor preparation was combined with test compound, 0.4 nM [^3 H]-R5020, and TEDG buffer to a final volume of 150 ,μL and incubated for 4 hours at 4° C. in microtiter plates. At the end of incubation 40 μL 40% polyethylene glycol and 15 μL 1% human gamma globulin was added to the incubate and the contents of each well were harvested onto double thick B filter mats (Wallac LKB) using a TomTec harvester. A film of Meltilux scintillant wax was applied to the dried filter mats and the mats were counted in a scintillation counter to determine inhibition of [^3 H]-R5020 binding. Data are expressed as lC50 values, i.e., the concentration of compound that inhibits radioligand binding by 50%.

progestin receptor (rPR) = biological target: T2, progestin receptor (rPR) (Oryctolagus cuniculus, UniProt P06186); test: Receptor binding (rabbit), progestin receptor; conditions: for Ratio PR/GR: ratio of rPR to rGR relative affinities; for Relative Binding Affinity, rPR, Relative Affinity (Progesterone): relative to progesterone = 100, rabbit progestin receptor
T2 construct: hormone receptors for progestins and glucocorticoids from rabbits; from tissue; host or cells: rabbit
T2 sequence (P06186 1-930): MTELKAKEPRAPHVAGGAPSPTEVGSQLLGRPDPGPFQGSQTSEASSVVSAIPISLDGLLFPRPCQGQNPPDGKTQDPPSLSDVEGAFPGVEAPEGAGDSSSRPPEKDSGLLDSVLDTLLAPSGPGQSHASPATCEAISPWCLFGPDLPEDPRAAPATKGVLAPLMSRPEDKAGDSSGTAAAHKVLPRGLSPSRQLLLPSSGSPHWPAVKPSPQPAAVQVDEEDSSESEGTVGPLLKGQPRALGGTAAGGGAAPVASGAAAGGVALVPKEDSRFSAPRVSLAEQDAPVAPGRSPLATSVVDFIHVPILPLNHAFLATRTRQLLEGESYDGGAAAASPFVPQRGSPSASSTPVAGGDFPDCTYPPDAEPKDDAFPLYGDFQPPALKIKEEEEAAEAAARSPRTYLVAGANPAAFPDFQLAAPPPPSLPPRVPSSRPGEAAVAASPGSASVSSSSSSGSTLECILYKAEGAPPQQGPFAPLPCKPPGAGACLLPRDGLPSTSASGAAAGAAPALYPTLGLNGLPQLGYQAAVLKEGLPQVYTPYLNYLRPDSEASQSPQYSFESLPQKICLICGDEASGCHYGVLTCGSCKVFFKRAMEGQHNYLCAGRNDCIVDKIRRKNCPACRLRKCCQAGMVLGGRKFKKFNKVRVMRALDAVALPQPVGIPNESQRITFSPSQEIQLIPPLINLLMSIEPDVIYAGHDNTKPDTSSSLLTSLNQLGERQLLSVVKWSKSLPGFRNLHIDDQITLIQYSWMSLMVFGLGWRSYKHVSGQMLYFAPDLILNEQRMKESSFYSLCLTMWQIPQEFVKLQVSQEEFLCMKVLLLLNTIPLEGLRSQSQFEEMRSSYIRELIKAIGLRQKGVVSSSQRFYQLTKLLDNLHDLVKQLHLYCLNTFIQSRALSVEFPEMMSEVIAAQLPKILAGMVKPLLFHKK

rabbits [3] = test: Anti-McGinty assay (antiprogestational activity, test compound plus progesterone); assay type: in vivo, rabbit; parameters: key to McPhail Index, Anti-McGinty Assay, Standard / McPhail Index, Anti-McGinty Assay (Antagonist): McPhail scoring scale for progestational endometrial response; conditions: for McPhail Index, Anti-McGinty Assay (Antagonist): plus progesterone
Protocol: as §1

SMILES: CC#C[C@]1([N+](=O)[O-])CC[C@H]2[C@@H]3CCC4=CC(=O)CCC4=C3[C@@H](c3ccc(C(C)=O)cc3)C[C@@]21C [I 4-CH3 CO H O H --CC--CH3, 11β-(4-Acetylphenyl)-17β-nitro-17α-(1-propynyl)estra-4,9-dien-3-one]
- McPhail Index, McGinty Assay (Agonist) (rabbits [1]; dose 0.3 micrograms): 0.13 ± 0.12
- McPhail Index, McGinty Assay (Agonist) (rabbits [1]; dose 3 micrograms): 1.33 ± 0.35
- McPhail Index, McGinty Assay (Agonist) (rabbits [1]; dose 30 micrograms): 0.97 ± 0.75
- Relative Binding Affinity, rGR, Relative Affinity (Dexamethasone) [2]: 20
- Ratio PR/GR (progestin receptor (rPR)): 7.7
- Relative Binding Affinity, rPR, Relative Affinity (Progesterone) (progestin receptor (rPR)): 153
- McPhail Index, Anti-McGinty Assay (Antagonist) (rabbits [3]; dose 0.3 micrograms): 2.173 ± 0.42
- McPhail Index, Anti-McGinty Assay (Antagonist) (rabbits [3]; dose 3 micrograms): 2.47 ± 0.15
- McPhail Index, Anti-McGinty Assay (Antagonist) (rabbits [3]; dose 30 micrograms): 0.13 ± 0.12
- agonist/antagonist profile (rabbits [3]; in words, McGinty and anti-McGinty tests): mixed (agonist/antagonist) profile

SMILES: CC(=O)c1ccc([C@H]2C[C@@]3(C)[C@@H](CC[C@]3(/C=C/CO)[N+](=O)[O-])[C@@H]3CCC4=CC(=O)CCC4=C32)cc1 [I 4-CH3 CO H O H CH=CHCH2 OH, 11β-(4-acetylphenyl)-17α-(E-3-hydroxy-1-propenyl)-17β-nitroestra-4,9-dien-3-one]
- McPhail Index, McGinty Assay (Agonist) (rabbits [1]; dose 0.3 micrograms): 0 ± 0
- McPhail Index, McGinty Assay (Agonist) (rabbits [1]; dose 3 micrograms): 0 ± 0
- McPhail Index, McGinty Assay (Agonist) (rabbits [1]; dose 30 micrograms): 0 ± 0
- Relative Binding Affinity, rGR, Relative Affinity (Dexamethasone) [2]: 4
- Ratio PR/GR (progestin receptor (rPR)): 6.5
- Relative Binding Affinity, rPR, Relative Affinity (Progesterone) (progestin receptor (rPR)): 26
- McPhail Index, Anti-McGinty Assay (Antagonist) (rabbits [3]; dose 0.3 micrograms): 1.53 ± 0.68
- McPhail Index, Anti-McGinty Assay (Antagonist) (rabbits [3]; dose 3 micrograms): 1.76 ± 0.45
- McPhail Index, Anti-McGinty Assay (Antagonist) (rabbits [3]; dose 30 micrograms): 2.3 ± 0.0

SMILES: CC(=O)c1ccc([C@H]2C[C@@]3(C)[C@@H](CC[C@]3(CCCO)[N+](=O)[O-])[C@@H]3CCC4=CC(=O)CCC4=C32)cc1 [I 4-CH3 CO H O H --(CH2)3 OH, 11β-(4-Acetylphenyl)-17α-(3-hydroxypropyl)-17β-nitroestra-4,9-dien-3-one]
- McPhail Index, McGinty Assay (Agonist) (rabbits [1]; dose 0.3 micrograms): 0 ± 0
- McPhail Index, McGinty Assay (Agonist) (rabbits [1]; dose 3 micrograms): 0 ± 0
- McPhail Index, McGinty Assay (Agonist) (rabbits [1]; dose 30 micrograms): 0 ± 0
- Relative Binding Affinity, rGR, Relative Affinity (Dexamethasone) [2]: 3
- Ratio PR/GR (progestin receptor (rPR)): 17.7
- Relative Binding Affinity, rPR, Relative Affinity (Progesterone) (progestin receptor (rPR)): 53
- McPhail Index, Anti-McGinty Assay (Antagonist) (rabbits [3]; dose 0.3 micrograms): 2.93 ± 0.12
- McPhail Index, Anti-McGinty Assay (Antagonist) (rabbits [3]; dose 3 micrograms): 2.43 ± 0.6
- McPhail Index, Anti-McGinty Assay (Antagonist) (rabbits [3]; dose 30 micrograms): 1.60 ± 0.66

SMILES: CN(C)c1ccc([C@H]2C[C@@]3(C)[C@@H](CC[C@]3(CCCO)[N+](=O)[O-])[C@@H]3CCC4=CC(=O)CCC4=C32)cc1 [I 4-Me2 N H O H --(CH2)3 OH, 11β-[4-(N,N-Dimethylamino)phenyl]-17α-(3-hydroxypropyl)-17β-nitroestra-4,9-dien-3-one]
- McPhail Index, McGinty Assay (Agonist) (rabbits [1]; dose 0.3 micrograms): 0 ± 0
- McPhail Index, McGinty Assay (Agonist) (rabbits [1]; dose 3 micrograms): 0 ± 0
- McPhail Index, McGinty Assay (Agonist) (rabbits [1]; dose 30 micrograms): 0.03 ± 0.057
- Relative Binding Affinity, rGR, Relative Affinity (Dexamethasone) [2]: 74
- Ratio PR/GR (progestin receptor (rPR)): 2.3
- Relative Binding Affinity, rPR, Relative Affinity (Progesterone) (progestin receptor (rPR)): 170
- McPhail Index, Anti-McGinty Assay (Antagonist) (rabbits [3]; dose 0.3 micrograms): 1.83 ± 0.48
- McPhail Index, Anti-McGinty Assay (Antagonist) (rabbits [3]; dose 3 micrograms): 1.87 ± 0.98
- McPhail Index, Anti-McGinty Assay (Antagonist) (rabbits [3]; dose 30 micrograms): 0.43 ± 0.31

SMILES: CC1=[N+]([O-])C2(CC1)CCC1C3CCC4=CC(=O)CCC4=C3C(c3ccc(N(C)C)cc3)CC12C (stereo not drawn) [II 4-Me2 N H O H -- CH3, 3',4'-dihydro-11β-(4-(N,N-dimethylamino)phenyl)-5'-methyl-1'-oxo-spiro[estra-4,9-dien-17β,2'(2'H)-pyrrole]-3-one]
- McPhail Index, McGinty Assay (Agonist) (rabbits [1]; dose 0.3 micrograms): 0 ± 0
- McPhail Index, McGinty Assay (Agonist) (rabbits [1]; dose 3 micrograms): 0 ± 0
- McPhail Index, McGinty Assay (Agonist) (rabbits [1]; dose 30 micrograms): 0 ± 0
- Relative Binding Affinity, rGR, Relative Affinity (Dexamethasone) [2]: 2
- separation of progestin and glucocorticoid receptor affinity (progestin receptor (rPR); in words): excellent separation of progestin and glucocorticoid receptor affinity
- Ratio PR/GR (progestin receptor (rPR)): 78.5
- Relative Binding Affinity, rPR, Relative Affinity (Progesterone) (progestin receptor (rPR)): 157
- McPhail Index, Anti-McGinty Assay (Antagonist) (rabbits [3]; dose 0.3 micrograms): 2.03 ± 0.14
- McPhail Index, Anti-McGinty Assay (Antagonist) (rabbits [3]; dose 3 micrograms): 1.9 ± 0.85
- McPhail Index, Anti-McGinty Assay (Antagonist) (rabbits [3]; dose 30 micrograms): 0 ± 0
- antiprogestational activity in the anti-McGinty assay (rabbits [3]; in words): potent antiprogestin in the anti-McGinty assay
